{"source": "patent US11351121B2", "about": "“Calcium alginate dosage formulations, and methods of making and using thereof” (Temple University—Of The Commonwealth System of Higher …, priority 2015, dated 2022)", "key": {"[1]": {"assay": "Drug loss during the cross-linking process", "format": "physicochemical", "conditions": "previous formulations (with glycerol, lactose, sucrose)"}, "[2]": {"assay": "Dissolution of formulations A-K: acid stage (0.1 N HCl two hours) then buffer stage", "format": "physicochemical", "conditions": "for T80: buffer stage pH 7.2 phosphate buffer after 0.1 N HCl two hours; for % released in acid stage: after two hours", "method": "(§1) A dissolution study was performed on each of the different tablets to determine their dissolution profiles. Dissolution USP apparatus II (Paddle) was initially used. […] Rotation speed was 50 RPM and the temperature was 37.0±0.5° C. The dissolution media used was 900 ml of 0.1 N hydrochloric acid in each vessel. After 2 hours the dissolution media was changed to 900 ml of standard 50 mM pH 7.2 potassium phosphate buffer. A 1 ml sample was withdrawn at each time. The samples were analyzed by HPLC.\nHPLC analysis: an Agilent 1100 series HPLC with auto-sampler and dual wavelength detector was used. The mobile phase was acetonitrile to water with 0.5% formic acid (60:50 v/v).\nMethods: different formulations were developed. […] The ingredients of all the formulations were mixed with deionized water at room temperature. The basket method described in chapter two was used to fabricate the tablets. 2 or 1.5 ml of the gel was dispensed into the basket as indicated.\nRelease profiles of the tablets were investigated in different buffer capacities and pH values. The tablets were pretreated in the acid stage for two hours before transferring them to the buffer stage."}, "[3]": {"assay": "Dissolution of compressed caffeine tablets (Carver press, Minipress IIBD)", "format": "physicochemical", "conditions": "compressed tablet with alginate film coating", "method": "Coated Tablet Results: different weight gains were tested to try to achieve the delayed release profile.\nBecause it was somewhat more difficult to produce tablets with similar hardness on the Minipress using the formulation used on the Carver press, lactose was added to increase the hardness of the tablets."}, "[4]": {"conditions": "cited from earlier work"}, "[5]": {"assay": "Dissolution study of calcium alginate tablets, USP apparatus I (basket), 0.1 N HCl 2 hours then pH 7.2 phosphate buffer", "format": "physicochemical", "conditions": "after two hours", "method": "Analysis: an Agilent 1100 series HPLC with autosampler and dual wavelength detector was used. The mobile phase was acetonitrile to water with 0.5% formic acid (60:50 v/v). The flow rate was 1.2 mL/min and the sample injection volume was 50 μL and the wavelength of detection was 214 nm. The column used was a 150 by 4.6 mm Eclipse Plus C18 column (Agilent).\nas §1"}, "[6]": {"assay": "Dissolution of calcium alginate tablets in different dissolution media (deionized water, EDTA, EDTA+CaCl2)", "format": "physicochemical", "method": "In order to investigate the role of solutes and pH of the media on the erosion process, calcium alginate tablets made with same formulation were treated in different dissolution media.\nThe dissolution of the drug from the Ca Alginate dosage form was dependent on two things. First the pH of the media had to be neutral or high. Second the media had to have the ability to complex with the Calcium in solution. […] The drug release at pH 7.2 in media with either EDTA or phosphate buffer was complete in 6 hours. Drug release in 0.1 N HCl was less than 5%."}, "[7]": {"conditions": "poly(ethyloxaline)/PMAA matrix disks, 0.9% saline; cited from earlier work"}}, "note": "Entries after “also recorded” stand apart in the source; their conditions may differ."}
{"compound": "O=C(O)c1ccccc1", "note": "[Benzoic acid, benzoic acid]", "values": [{"measurement": "benzoic acid lost during the cross-linking process", "setting": "[1]", "value": "more than 30%"}, {"measurement": "drug load released during residence time in the acid stage", "setting": "[2]; benzoic acid, previous formulations (with glycerol, lactose, sucrose)", "value": "more than 30%"}, {"measurement": "T80", "setting": "[2]; formulation B", "value": 6.76, "unit": "h"}, {"measurement": "released in the acid stage after two hours", "setting": "[2]; formulation C", "value": "about 18%"}, {"measurement": "T80", "setting": "[2]; formulation C", "value": 6.4, "unit": "h"}, {"measurement": "% released in acid stage", "setting": "[2]; formulation K", "value": 7, "unit": "%"}, {"measurement": "erosion of tablets at pH 3 and pH 4", "setting": "[2]; formulation K, buffer stage", "value": "no erosion was detected"}, {"measurement": "erosion of tablets at pH 5", "setting": "[2]; formulation K, buffer stage", "value": "started to erode but at a slower rate compared to pH 7.2"}, {"measurement": "effect of higher buffer capacity on release rate", "setting": "[2]; formulation K, 100 mM phosphate buffer, pH 7.2", "value": "minimum effect on the release rate"}, {"measurement": "effect of lower buffer capacity on drug release", "setting": "[2]; formulation K, 25 and 10 mM phosphate buffer, pH 7.2", "value": "a slower drug release"}]}
{"compound": "Cn1c(=O)c2c(ncn2C)n(C)c1=O", "note": "[Caffeine, caffeine]", "values": [{"measurement": "% released in acid stage", "setting": "[2]; formulation K", "value": 18, "unit": "%"}, {"measurement": "caffeine release by 12 hours", "setting": "[3]", "value": 80, "unit": "%"}, {"measurement": "time for which caffeine is retained", "setting": "[3]", "value": "up to 8 hours"}]}
{"compound": "COc1ccccc1OCC(O)CO", "note": "(stereo not drawn) [Guaifenesin, guaifenesin]", "values": [{"measurement": "solubility", "setting": "[4]", "value": "highly soluble"}, {"measurement": "% released in acid stage", "setting": "[2]; formulation K", "value": 17, "unit": "%"}]}
{"compound": "CC(C)Cc1ccc(C(C)C(=O)O)cc1", "note": "(stereo not drawn) [Ibuprofen, ibuprofen]", "values": [{"measurement": "T80", "setting": "[2]; formulation B", "value": 4.8, "unit": "h"}, {"measurement": "T80", "setting": "[2]; formulation C", "value": 6.71, "unit": "h"}, {"measurement": "% released in acid stage", "setting": "[2]; formulation K", "value": "<1", "unit": "%"}, {"measurement": "drug released in 0.1 N HCl media", "setting": "[5]", "value": "less than 5%"}, {"measurement": "release of the drug in pH 7.2 deionized water", "setting": "[6]; calcium alginate tablets, pH 7.2 deionized water", "value": "no significant release; also recorded: no drug release"}, {"measurement": "time to complete drug release", "setting": "[6]; pH 7.2 media with either EDTA or phosphate buffer", "value": 6, "unit": "h"}, {"measurement": "drug release in 10 mM EDTA dissolution medium", "setting": "[6]; tablets with 1 g stearic acid, 1 molar CaCl2 3 minutes, 10 mM EDTA", "value": "Complete drug release"}, {"measurement": "erosion or release in EDTA solution treated with calcium chloride", "setting": "[6]; tablets with 1 g stearic acid, 1 molar CaCl2 3 minutes, 10 mM EDTA+30 mM CaCl2", "value": "No erosion or release"}]}
{"compound": "insulin: regular zinc insulin in a poly(ethyloxaline)/PMAA matrix (Kwon et al.)", "values": [{"measurement": "insulin released during the 3 days equilibrium period in saline", "setting": "[7]", "value": "less than 4 % of the initial insulin load"}]}
